Experimental data from patent US20230339983A1, “FLUORESCENT COMPOUNDS SPECIFIC FOR PLURIPOTENT STEM CELLS AND REPROGRAMMING-READY CELLS AND METHODS OF USING THE SAME” (Agency for Science, Technology and Research, priority 2018, published 2023).

Tests used:
[1] = test system: BJ human fibroblasts; assay: Staining of BJ fibroblasts reprogrammed with lentiviral Yamanaka factors; format: cell-based
Description: (§1) iPS cells were also generated from DPSCs with the traditional protocol involving retroviral vectors expressing OCT4, SOX2, KLF4, and C-MYC (Sugii, et al. (2011). Nature Protoc 6(3):346-358). BJ human neonatal fibroblasts were reprogrammed using lentiviral OCT4, SOX2, KLF4, and C-MYC as described previously (Toh, et al. (2016). Cell Rep 15(12):2597-2607).
(§2) We also tested whether BDL-E5 worked for commonly used reprogramming methods and cell type. DPSCs were infected with retroviral vectors expressing four Yamanaka factors, and plated onto MEF. […] In addition, BJ human fibroblasts were reprogrammed with lentiviral Yamanaka factors.

[2] = test system: reprogramming DPSCs; assay: BDL-E5 live staining time course of episomally reprogrammed DPSCs on MG; format: cell-based, human
Procedure: Episomal plasmids developed by Yamanaka's lab were obtained from Addgene: pCXLEhOct3/4-shp53-F (Addgene #27077), pCXLE-hSK (Addgene #27078), pCXLE-hUL (Addgene #27080) and pCXLE-EGFP (Addgene #27082) (Okita, et al. (2011). Nat Methods 8, 409-412). 1×10^6 cells were suspended together with 1 μg of each episomal vector in Nucleofector solution supplied in the Nucleofector Kit R (Lonza). Then the cells were transfected with the Program FF-113 on a Nucleofector 2b Device. The transfected cells were then cultured in ASC or DPSC medium (MSC medium) supplemented with 0.5 mM sodium butyrate, with daily media change. On Day 7 dpn, 1×10^5 viable cells were seeded over MEF feeders (GlobalStem) into one well of a 6-well plate for feeder-based iPS derivation; 2×10^5 viable cells were seeded for feeder-free iPS derivation into one well of a 6-well plate pre-coated with Matrigel (Corning). The next day, MSC medium was changed to feeder-based hES medium (DMEM/F12 supplemented with 20% knock out serum replacement, 1% GlutaMAX, 1% NEAA, Pen/Strep, 0.1 mM p-mercaptoethanol and 10 ng/ml b-FGF) or to feeder-free mTeSR1 (StemCell Technologies), supplemented with sodium butyrate. At 12 dpn, supplementation of sodium butyrate was stopped, and conditioned further with SMC4 cocktail (consisting of small molecules: PD0325901, CHIR99021, Thiazovivin, and SB431542 (FOCUS Biomolecules)) in hES medium/mTeSR1. This media supplement was continued until initial colony formation began.
Reprogrammed cells were immune-stained with fluorescent live cell stain TRA-1-60 (R&D Systems, GloLIVE NL557) as per manufacturer's instructions. After incubating with the live staining antibodies for 30 min and Hoechst 33342 for 10 min, cells were washed 3 times with PBS and images with the Cy5 and DAPI channels, respectively, were immediately captured.
Further experiments were carried out using BDL-E5. To determine whether BDL-E5 identifies the early stages of pluripotency, ASCs and DPSCs were reprogrammed using nucleofection of episomal vectors, and seeded onto MG-coated plates (feeder-free, viral-free reprogramming method). […]

[3] = test system: reprogramming DPSCs; assay: Staining of DPSCs reprogrammed with retroviral Yamanaka factors on MEF; format: cell-based, human; details: retroviral OCT4, SOX2, KLF4, C-MYC
Description: as §1, §2

[4] = test system: human iPS cells (AiPS, DiPS colonies); assay: DOFLA screening (primary, secondary, tertiary) of fluorescent probes on iPS cells versus original somatic cells; format: cell-based
Procedure: The chemical properties of the BDL library are previously described (Jeong et al., 2015). BDL-E5 is based on 4,4-difluoro-4-bora-3a,4a-diaza-s-indacene (BODIPY), with calculated mass of 528.3 and absorption maximum/emission maximum of 578/599 nm. Primary, secondary and tertiary screening of fluorescent probes on AiPS, ASCs, DiPS and DPSCs were performed as described previously (Im, et al. (2010). Angew Chem Int Ed Engl 49, 7497-7500; Kang, et al. (2011). Nat Protoc 6, 1044-1052) and in the Results section. Unless described otherwise, BDL-E5 and CDy1 images were acquired by the Tetramethylrhodamine (TRITC) channel of ImageXpress Micro High-Content Imaging System, which had the Adaptive Background Correction function enabled.
A high-throughput system using in-house Diversity Orientated Fluorescence Library Approach (DOFLA) was employed to screen 46 fluorescent probes that the inventors predicted may specifically recognize pluripotent stem cells. To identify fluorescent probes that detected human pluripotent stem cells, ASCs, ASC-derived iPS (AiPS) cells, DPSCs, and DPSC-derived iPS (DiPS) cells were used. […] Cells were seeded onto 384-well plates (primary screen) or 96-well plates (secondary and tertiary screen) coated with mouse embryonic fibroblasts (MEF) or matrigel (MG) for DOFLA screening (FIG. 1A). After 48 h, cells were stained with library probes (500 nM) for 1 h. Fluorescence was imaged using the ImageXpress System under the following conditions: “No wash” (after 1 h probe incubation), “Wash 0 min” (after one wash with PBS), “Wash 60 min” (after wash and destain for 1 h) and “Wash 180 min” (after wash and destain for 3 h) (FIG. 1A).
Images were analyzed using the MetaXpress Image Acquisition and Analysis software. Following tertiary screening, two probes were shortlisted to develop further as pluripotent probes: BDL-E5 and CDy1. The chemical structure of BDL-E5 is depicted in FIG. 1B.
Secondary screening was performed to confirm that the probes selectively stained different iPS colonies. […] The BDL-E5^+ colonies were also positively stained for the pluripotency marker TRA-1-60.
Based on the primary and secondary screenings for live fluorescent probes that can specifically identify pluripotent cells, BDL-E5 and CDy1 were chosen as two probes to further analyze. Tertiary screening was performed using the two probes on AiPS colonies under the following probe staining conditions: No wash, Wash 0 min, Wash 60 min, and Wash 180 min.

COc1cc(F)c(/C=C/c2cc(C)c3n2[B-](F)(F)[N+]2=C(CCC(=O)NCCN(C)C)C=CC2=C3)cc1OC [BDL-E5]
staining of reprogramming versus non-reprogramming cells [1]: successfully stained reprogramming, but not non-reprogramming cells | staining strength compared with TRA-1-60 [1]: stronger than that of TRA-1-60 | intensity of fluorescence of staining at 7, 14, 21, 28 dpn ([2]; iPS colonies formed from DPSCs): increased with increasing time | fate of stained cells tracked in the same field of view until colony formation ([2]; reprogrammed DPSCs, staining every 48 h, 10-24 dpn): only cells staining positive for BDL-E5 formed iPS colonies | time at which positive cells/colonies were found ([2]; reprogramming DPSCs, MG-coated plates, episomal feeder-free): 7 dpn | earliest time of staining of reprogramming cells [3]: 7 dpi | intensity of fluorescence in human iPS cells compared with original somatic cells and MEFs ([4]; 500 nM probe, 1 h, after tertiary screening): significantly increased intensity of fluorescence | staining of AiPS colonies compared with original somatic cells (ASCs) ([4]; primary screening, MEF- or MG-coated plates, 500 nM, 1 h, BDL-E5 No wash): increased BDL-E5 staining | staining of DiPS colonies compared with original DPSCs ([4]; secondary screening, MEF- or MG-coated plates, 500 nM, 1 h, BDL-E5 No wash): significantly increased fluorescence intensity | wash condition under which staining (signal-to-background ratio) was greatest ([4]; tertiary screening, AiPS colonies on MEF-coated plates): No wash | wash condition under which staining was greatest ([4]; tertiary screening, AiPS colonies on MG-coated plates): No wash
